The values that follow come from US11351173B2, “Substituted pyrrolo[1,2-a]pyrimidines and their use in the treatment of medical disorders” (Bial—R&D Investments, S.A., priority 2014, dated 2022).

The target in data set [1] is T1, glucocerebrosidase (Gcase) (Homo sapiens, UniProt P04062).
T1 construct: micellar solution containing 10 nM GCase and 100 nM saposin C
T1 sequence (P04062 40-536): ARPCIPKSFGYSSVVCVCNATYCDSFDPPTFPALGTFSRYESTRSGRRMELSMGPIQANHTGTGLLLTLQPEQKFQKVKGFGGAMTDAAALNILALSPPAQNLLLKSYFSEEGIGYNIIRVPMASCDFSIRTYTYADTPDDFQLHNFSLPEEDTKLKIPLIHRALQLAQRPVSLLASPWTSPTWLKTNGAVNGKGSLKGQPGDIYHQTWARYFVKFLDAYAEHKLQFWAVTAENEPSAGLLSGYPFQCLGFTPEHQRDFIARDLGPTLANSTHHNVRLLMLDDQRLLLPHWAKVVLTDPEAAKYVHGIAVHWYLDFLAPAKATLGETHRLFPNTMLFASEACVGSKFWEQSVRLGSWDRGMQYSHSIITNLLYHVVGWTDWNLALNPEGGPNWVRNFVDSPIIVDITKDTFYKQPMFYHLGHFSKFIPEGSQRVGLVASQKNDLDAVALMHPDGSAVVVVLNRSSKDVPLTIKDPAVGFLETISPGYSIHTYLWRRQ
Kind of data set: Glucocerebrosidase (Gcase) activation assay, 4-methylumbelliferyl-beta-D-glucopyranoside substrate, fluorescence readout. Type of data set: biochemical. The conditions noted are these: for activation at 0.1 µM: read-out: Percent Gcase Activation, 0.1 μM Test Compound; for activation at 1 µM: read-out: Percent Gcase Activation, 1 μM Test Compound. An outline of the steps: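 Fluorescence (ex 365 nm, em 440 nm) read after glycine pH 12.5 stop of a 15 min room-temperature reaction. GCase 10 nM plus saposin C 100 nM in PS/triton micelles, pH 4.7, preincubated 30 min with compound; substrate solution held 2 mM 4-MU-beta-glucoside. Screened at 1.0 and 0.1 μM; 8-point, 3-fold curves from 5 μM top.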

A short description of data set [2]: Compound solubility in water. The following applies: water, Compound Solubility in Water.

The structures appear in SMILES notation. Converted amounts (≈) assume the structure as drawn.

Take `Cc1cc(C)n2ccc(C(=O)Nc3ccc4c(c3)C(Oc3nnc(C)o3)CC4)c2n1` (stereo not drawn) [III-221]: the activation at 0.1 µM in data set [1] (test compound at 0.1 μM) was < 10%. In data set [1] (test compound at 1.0 μM), the activation at 1 µM lay within 30 to 60%. For the same compound, the concentration in solution in data set [2] (in water) (solubility) was 0.1 µg/mL (≈ 0.248 µM).
As for `Cc1cc(C)n2ccc(C(=O)NC3CCC(F)(F)CC3)c2n1` [III-92], the activation at 0.1 µM in data set [1] (test compound at 0.1 μM) is < 10%. Further, the activation at 1 µM in data set [1] (test compound at 1.0 μM) was in the range of 30 to 60%. Besides, the concentration in solution in data set [2] (solubility) was 1.6 µg/mL (≈ 5.21 µM).
On to `Cc1cc(C)n2ccc(C(=O)Nc3ccc(-c4cccs4)nc3)c2n1` [III-8], for which, in data set [1] (test compound at 0.1 μM), the activation at 0.1 µM is > 20%. Also, the activation at 1 µM in data set [1] (test compound at 1.0 μM) was > 60%. In addition, the solubility (as a rule, how much of the substance goes into solution per volume) in data set [2] was 0.01 µg/mL (≈ 0.0287 µM).
For `Cc1cc(C)n2ccc(C(=O)Nc3ccc4c(c3)C(O)CC4)c2n1` (stereo not drawn) [III-222], the activation at 0.1 µM in data set [1] (test compound at 0.1 μM) is < 10%. In addition, the activation at 1 µM in data set [1] (test compound at 1.0 μM) is < 30%. The same compound registered a solubility in data set [2] (in water) of 0.5 µg/mL (≈ 1.56 µM).
As for `C#Cc1ccc(NC(=O)c2ccn3c(C)cc(C)nc23)cc1` [III-2], the activation at 0.1 µM in data set [1] (test compound at 0.1 μM) was > 20%. The activation at 1 µM in data set [1] (test compound at 1.0 μM) was > 60%. Further, in data set [2], the solubility was < 1.5 µg/mL.
On the same counts, the results for `Cc1cc(C)n2ccc(C(=O)Nc3ccc(-c4cnn(C)c4)nc3)c2n1` [III-21] are < 10%, < 30% and 0.2 µg/mL (≈ 0.577 µM).
On the same counts, the results for `COCc1cc(C)nc2c(C(=O)NC(C)(C)c3ccc(-c4cocn4)cc3)ccn12` [III-49] are > 20%, > 60% and 1.7 µg/mL (≈ 4.2 µM).
Turning to `COC1CCC(NC(=O)c2ccn3c(C)cc(C)nc23)c2ccccc21` (stereo not drawn) [III-212], the activation at 0.1 µM in data set [1] (test compound at 0.1 μM) lay in the range of 10 to 20%. Moreover, the activation at 1 µM in data set [1] (test compound at 1.0 μM) was > 60%. The compound further displayed a solubility in data set [2] (in water) of 13.6 µg/mL (≈ 38.9 µM).
For `CCC(F)(F)CN1CCC(NC(=O)c2ccn3c(C)cc(C)nc23)CC1` [III-204], in that order: < 10%, < 30% and 21.1 µg/mL (≈ 57.9 µM).
Consider `COCc1cc(C)n2ccc(C(=O)NC(C)(C)c3ccc(-c4cocn4)cc3)c2n1` [III-48], for which the activation at 0.1 µM in data set [1] (test compound at 0.1 μM) lay within 10 to 20%. Also, the activation at 1 µM in data set [1] (test compound at 1.0 μM) was > 60%. The compound further displayed a solubility in data set [2] of 3.5 µg/mL (≈ 8.65 µM).
Take `Cc1cc(C)n2ccc(C(=O)Nc3cnc(-c4ncccn4)c(Cl)c3)c2n1` [III-223]: in data set [1] (test compound at 0.1 μM), the activation at 0.1 µM is < 10%. Also, in data set [1] (test compound at 1.0 μM), the activation at 1 µM was < 30%. The compound also registered a solubility in data set [2] (in water) of 3.2 µg/mL (≈ 8.45 µM).
For the compound `Cc1cc(C)n2ccc(C(=O)N[C@H]3CC[C@H](Oc4ncccn4)CC3)c2n1` [III-90], the activation at 0.1 µM in data set [1] (test compound at 0.1 μM) is < 10%. Further, the activation at 1 µM in data set [1] (test compound at 1.0 μM) was < 30%. Besides, the solubility in data set [2] came out at 2.4 µg/mL (≈ 6.57 µM).
`Cc1cc(C)n2ccc(C(=O)NC3CCCCC34CCOCC4)c2n1` (stereo not drawn) [III-184]: in data set [1] (test compound at 0.1 μM), the activation at 0.1 µM lay in the range of 10 to 20%. In addition, the activation at 1 µM in data set [1] (test compound at 1.0 μM) was > 60%. Also, the solubility in data set [2] is 19.5 µg/mL (≈ 57.1 µM).
For `Cc1cc(C)n2ccc(C(=O)NC3CCCc4ccc(-c5cocn5)cc43)c2n1` (stereo not drawn) [III-122], in that order: 10 to 20%, > 60% and 0.8 µg/mL (≈ 2.07 µM).
As to `Cc1cc(C)n2ccc(C(=O)NC3CCC4OCOC4C3)c2n1` (stereo not drawn) [III-229], the activation at 0.1 µM in data set [1] (test compound at 0.1 μM) was < 10%. For the same compound, in data set [1] (test compound at 1.0 μM), the activation at 1 µM is < 30%. In data set [2] (in water), this compound gave a solubility of 28.5 µg/mL (≈ 90.4 µM).
On to `Cc1cc(C)n2ccc(C(=O)Nc3ccc4c(c3)C(Oc3cccnc3)CC4)c2n1` (stereo not drawn) [III-120], for which the activation at 0.1 µM in data set [1] (test compound at 0.1 μM) is > 20%. The activation at 1 µM in data set [1] (test compound at 1.0 μM) was > 60%. The amount in solution in data set [2] (solubility) came to 0.1 µg/mL (≈ 0.251 µM).
As to `CCCCO[C@H]1CC[C@H](NC(=O)c2ccn3c(C(F)F)cc(C)nc23)CC1` [III-68], the activation at 0.1 µM in data set [1] (test compound at 0.1 μM) was > 20%. Besides, the activation at 1 µM in data set [1] (test compound at 1.0 μM) is > 60%. The same compound came in with a solubility in data set [2] of 1 µg/mL (≈ 2.64 µM).
Regarding `CCCCCOc1ccc(NC(=O)c2ccn3c(C)cc(C)nc23)cc1` [III-273], the “Percent Gcase Activation, 0.1 μM Test Compound” value in data set [1] (test compound at 0.1 μM) is “*** (greater than 20% Gcase activation)”. In data set [1] (test compound at 1.0 μM), the “Percent Gcase Activation, 1 μM Test Compound” value was “+++ (Gcase activation greater than 60%)”. Moreover, in data set [2] (in water), the solubility was 0.005 µg/mL (≈ 0.0142 µM).
With `C#Cc1ccc(NC(=O)c2ccn3c(C)cc(C)nc23)cn1` [III-5], the activation at 0.1 µM in data set [1] (test compound at 0.1 μM) was < 10%. Also, the activation at 1 µM in data set [1] (test compound at 1.0 μM) was > 60%. The compound also registered a solubility in data set [2] of 10.1 µg/mL (≈ 34.8 µM).
